Laboratory results as given in patent publication US20180344725A1, “QUINOLONE CHALCONE COMPOUNDS AND USES THEREOF” (priority 2015, published 2018).

Tests used:
MDA-MB-231 = test: SRB-based cytotoxicity assay; assay type: cell-based, human; details: Homo sapiens; MDA-MB-231; SRB; Table 2
Method: (§1) For (anti)proliferation assays, 4,000-5,000 cells/well of the 96-well clustered dish were incubated for 16 hours, as described previously (Hu et al., 2008; Skehan et al., 1990). After 16 hours, culture medium was replaced with fresh medium containing different dilutions of test compounds dissolved in DMSO. Some wells were treated with 100 μl of 10% trichloroacetic acid (TCA) as a negative control and sham (medium with dimethyl sulfoxide; DMSO) treated cells were used as a positive control. After 72 hours post-incubation, medium was removed and cells were fixed with 10% TCA at 4° C. for 1 hour. TCA was removed and cells were washed with cold tap water, and plate was air-dried, followed by addition of 50 μl of 0.4% SRB staining solution to each well. After 30 minutes incubation, SRB staining solution was removed. Cells were washed with 1% acetic acid solution, and then washed with tap water to remove unbound staining solution, followed by air-drying. 200 μl of 10 mM (pH10.5) trizma base buffer was added to each well to solubilise macromolecules. SRB stained macromolecules were determined at a 540 nm wavelength using an automated plate reader (Synergy H4 Hybrid Multi-Mode Microplate Reader, BioTek, Winooski, Vt.). Cell growth (inhibition) was calculated by the following formula:
(§2) % cells proliferation=[(AT−CT)/(ST−CT)]×100
(§3) wherein AT=absorbance of treated cells, CT=absorbance of negative control cells, and ST=absorbance of sham treated cells. IC50 values were calculated from sigmoidal dose-response curves generated by two independent biological replicates, with quadruplicate in each set by using Graph Pad Prism v.5.04 software. […] The combinational index (CI) was calculated as described previously (Chou 2006). If the CI values were less than, equal to or more than 1, it indicates a synergistic, additive or antagonistic effect respectively (Chou 2006). CI values were determined from four independent experiments.

MDA-MB-468 = test: SRB-based cytotoxicity assay; assay type: cell-based, human; details: Homo sapiens; MDA-MB-468; SRB; Table 2
Method: as §1, §2, §3

MCF-7 = test: SRB-based cytotoxicity assay; assay type: cell-based, human; details: Homo sapiens, MCF7; MCF-7; SRB; Table 2
Method: as §1, §2, §3

K562 = test: SRB-based cytotoxicity assay; assay type: cell-based; details: Homo sapiens, Table 2
Method: as §1, §2, §3

184B5 = test: SRB-based cytotoxicity assay; assay type: cell-based; details: Homo sapiens; 184B5 non-cancer; SRB; Table 2
Method: as §1, §2, §3

[1] = tested on: MDA-MB-231 human metastatic breast cancer cells; test: Anti-tumor activity in xenograft mice; assay type: in vivo; details: Tax 10 mg/kg I.V. once/week, CTR 30 mg/kg I.P. every 3 days, or Tax 5 + CTR 15 mg/kg once/week
Method: Five-week old female CD-1 and ATH490 (strain code 490) athymic nude mice were purchased from Charles River (Quebec, Canada). The MDA-MB-231 human metastatic breast cancer cells were obtained from the American Tissue Culture Collection (ATCC, Manassas, Va., USA). Cells were maintained under humidified conditions at 37° C. and 5% CO2 in DMEM high glucose medium (ATCC) supplemented with 10% fetal bovine serum and antibiotics.
For paclitaxel treatments, 40 mg/ml stock solution of paclitaxel (Sigma, MO) was prepared in DMSO. Just before administration to mice, the paclitaxel stock solution was diluted ten-fold in a buffer containing 10% DMSO, 12.5% Cremophor, 12.5% ethanol, and 65% saline-based diluent (0.9% sodium chloride, 5% polyethylene glycol, and 0.5% tween-80) which is defined as vehicle (Huang et al., 2006). Alanine transaminase (ALT, SUP6001-c)/Aspartate transaminase (AST, SUP6002-c) color endpoint assay kits were purchased from ID Labs Biotechnology (London, Ontario, Canada). Elevation of ALT and AST levels in serum samples was used as an indicator of liver damage/injury.
To determine the anti-tumor activity of CTR compounds in animals, a xenograft model of human breast cancer cells in athymic nude mice was established. Exponentially growing MDA-MB-231 metastatic breast cancer cells were harvested and counted for inoculation into mice. Each mouse was subcutaneously injected at the flank with 10×10^6 cells in 0.2 ml ice cold 1×PBS. When tumor size reached 4-5 mm in diameter (n=4-5 per group), mice were randomly assigned into several groups as described herein.
Animals were monitored for food and water consumption every day, and their body weights and tumor volumes were measured twice per week. Tumor volumes were measured with a digital caliper and were determined by using the following formula: ½ length×width^2. Blood samples were collected via cardiac puncture and processed further for ALT and AST measurements. The animals were then immediately euthanized by carbon dioxide. Tumors and vital organs (spleen, kidney, liver and lung) were collected and fixed in 10% buffered formalin at 4° C. overnight before being processed for paraffin embedding. The paraffin-embedded blocks were then cut into 4-5 μm thick sections. Each section of tumors and organs was stained with hematoxylin and eosin (H&E).

H69AR = test: SRB-based cytotoxicity assay; assay type: cell-based, human; details: H69AR versus SW-1271
Method: (§4) 1845B5 and MCF-10A non-cancer breast cell lines were cultured in DME/F12 medium supplemented with 10% fetal bovine serum, antibiotics and growth factors. […] The human small cell lung carcinoma H69 cell line and its multidrug-resistant MRP1-overexpressing isogenic H69AR cell line were purchased from ATCC. […] H69 cells grow as large multi-cell aggregates, making it difficult to accurately count cell numbers. […] The IL-6 dependent bortezomib-resistant ANBL6-BR cell line was further supplemented with 1 ng/ml of IL-6. The MCF10AT1 and MCF10CA1a cell lines are isogenic to the MCF10A cell line, and obtained from Dr. Valerie Weaver at the Center for Bioengineering and Tissue Regeneration, UCSF, CA, USA. […] The drug-resistant cells were cultured in the absence of drug for at least one passage before carrying out experiments. All cells were maintained in a humidified incubator at 37° C. […] Cell line authentication was performed using short tandem repeat (STR) profiling. […] Some wells were treated with 100 μl of 10% trichloroacetic acid (TCA) as a negative control and sham (medium with dimethyl sulfoxide; DMSO) treated cells were used as a positive control. […] TCA was removed and cells were washed with cold tap water, and plate was air-dried, followed by addition of 50 μl of 0.4% SRB staining solution to each well. After 30 minutes incubation, SRB staining solution was removed. Cells were washed with 1% acetic acid solution, and then washed with tap water to remove unbound staining solution, followed by air-drying. 200 μl of 10 mM (pH10.5) trizma base buffer was added to each well to solubilise macromolecules. […] Cell growth (inhibition) was calculated by the following formula: % cells proliferation=[(AT-CT)/(ST-CT)]×100 wherein AT=absorbance of treated cells, CT=absorbance of negative control cells, and ST=absorbance of sham treated cells. […] CI values were determined from four independent experiments.

KB-C-1 = test: SRB-based cytotoxicity assay; assay type: cell-based; details: Homo sapiens, KBC-1; KB-C-1, multidrug naïve
Method: as §4

KB-C-2 = test: SRB-based cytotoxicity assay, single and combination with paclitaxel; assay type: cell-based, human; details: KB-C-2 versus KB-C-1
Method: as §4

Row | SMILES | IC50 (MDA-MB-231) [nM] | IC50 (MDA-MB-468) [nM] | IC50 (MCF-7) [nM] | IC50 (K562) [nM] | IC50 (184B5) [nM] | tumor size (volume) ([1]; Day 0) [mm^3] | tumor size (volume) ([1]; Day 6) [mm^3] | tumor size (volume) ([1]; Day 14) [mm^3] | tumor size (volume) ([1]; Day 17) [mm^3] | tumor size (volume) ([1]; Day 20) [mm^3] | tumor size (volume) ([1]; Day 24) [mm^3] | tumor size (volume) ([1]; Day 27) [mm^3] | tumor size (volume) ([1]; Day 30) [mm^3] | Resistance (fold) (H69AR) | IC50 (KB-C-1) [nM] | Resistance (fold) (KB-C-2)
1 | COc1ccccc1C(=O)/C=C/c1cc2cc(C)ccc2[nH]c1=O [CTR-18, (E)-3-(3-(2-Methoxyphenyl)-3-oxoprop-1-enyl)-6-methylquinolin-2(1H)-one] | 930 | 80 | 120 | 210 ± 20 | 3890 | 92.51 | 111.09 | 138.10 | 145.48 | 166.84 | 143.78 | 141.52 | 253.37 | – | – | –
2 | COc1ccc2cc(/C=C/C(=O)c3ccccc3OC)c(=O)[nH]c2c1 [CTR-19, (E)-7-Methoxy-3-(3-(2-methoxyphenyl)-3-oxoprop-1-enyl) quinolin-2(1H)-one] | 5110 | 1910 | 1930 | 950 ± 650 | 3940 | 92.51 | 84.79 | 99.68 | 92.27 | 115.39 | 124.76 | 143.62 | 200.77 | – | – | –
3 | CC[C@]1(O)C[C@@H]2CN(CCc3c([nH]c4ccccc34)[C@@](C(=O)OC)(c3cc4c(cc3OC)N(C)[C@H]3[C@@](O)(C(=O)OC)[C@H](OC(C)=O)[C@]5(CC)C=CCN6CC[C@]43[C@@H]65)C2)C1 [Vinblastine, reference compound] | – | – | – | – | – | – | – | – | – | – | – | – | – | 5.82 | 0.61 ± 0.09 | 15.20
